Measured values as given in US20240190821A1, “SULFONAMIDE SUBSTITUTED N-(1H-INDOL-7-YL)BENZENESULFONAMIDES AND USES THEREOF” (Triana Biomedicines, Inc., priority 2021, published 2024).
Read-outs that look alike come from different tables or passages of the source.

Key:
[1] = target: T1, DCAF15-RBM39 ternary complex (Homo sapiens, UniProt Q14498+Q66K64); experiment: Compound-induced DCAF15-RBM39 ternary complex formation, AlphaLISA; type: biochemical
T1 construct: (RRM2)
Description: Compound-induced DCAF15-RBM39 ternary complex formation was monitored using AlphaLISA® assays (Perkin Elmer, Waltham, MA). […] 9.8 ul of this protein mixture was then mixed with the compounds in the assay plate and incubated for one hour at room temperature. Reaction mixtures with no compounds added were included as negative controls, while a His-tagged and biotinylated GST protein was included to track general assay performance. […] The beads were then added to the assay plate sequentially with incubation at room temperature for 1-2 hours after each addition.

[2] = target: DCAF15 (Homo sapiens, UniProt Q66K64); experiment: Binary interaction between compounds and DCAF15, HTRF competition assay; type: binding; details: HTRF competition with Alexa Fluor 647 tracer, His-tagged DCAF15 complex; read-out: DCAF15 IC50
DCAF15, sequence (Q66K64 whole entry): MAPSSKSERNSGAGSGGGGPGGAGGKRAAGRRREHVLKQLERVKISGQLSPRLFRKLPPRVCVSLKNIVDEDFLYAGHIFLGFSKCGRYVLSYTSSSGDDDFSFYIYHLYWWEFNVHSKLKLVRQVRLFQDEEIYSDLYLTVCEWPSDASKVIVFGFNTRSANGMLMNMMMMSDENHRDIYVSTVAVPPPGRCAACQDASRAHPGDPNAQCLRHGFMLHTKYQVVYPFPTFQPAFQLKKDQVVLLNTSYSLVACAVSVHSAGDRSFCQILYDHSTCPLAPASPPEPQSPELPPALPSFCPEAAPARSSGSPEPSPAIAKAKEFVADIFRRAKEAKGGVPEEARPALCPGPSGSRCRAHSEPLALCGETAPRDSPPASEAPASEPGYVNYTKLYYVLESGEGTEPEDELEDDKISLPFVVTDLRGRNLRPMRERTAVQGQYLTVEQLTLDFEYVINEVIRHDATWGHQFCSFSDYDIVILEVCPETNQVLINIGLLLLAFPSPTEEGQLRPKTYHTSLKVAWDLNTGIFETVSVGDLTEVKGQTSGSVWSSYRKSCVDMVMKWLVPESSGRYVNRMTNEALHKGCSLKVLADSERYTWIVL
DCAF15, sequence (Q16531 whole entry partner): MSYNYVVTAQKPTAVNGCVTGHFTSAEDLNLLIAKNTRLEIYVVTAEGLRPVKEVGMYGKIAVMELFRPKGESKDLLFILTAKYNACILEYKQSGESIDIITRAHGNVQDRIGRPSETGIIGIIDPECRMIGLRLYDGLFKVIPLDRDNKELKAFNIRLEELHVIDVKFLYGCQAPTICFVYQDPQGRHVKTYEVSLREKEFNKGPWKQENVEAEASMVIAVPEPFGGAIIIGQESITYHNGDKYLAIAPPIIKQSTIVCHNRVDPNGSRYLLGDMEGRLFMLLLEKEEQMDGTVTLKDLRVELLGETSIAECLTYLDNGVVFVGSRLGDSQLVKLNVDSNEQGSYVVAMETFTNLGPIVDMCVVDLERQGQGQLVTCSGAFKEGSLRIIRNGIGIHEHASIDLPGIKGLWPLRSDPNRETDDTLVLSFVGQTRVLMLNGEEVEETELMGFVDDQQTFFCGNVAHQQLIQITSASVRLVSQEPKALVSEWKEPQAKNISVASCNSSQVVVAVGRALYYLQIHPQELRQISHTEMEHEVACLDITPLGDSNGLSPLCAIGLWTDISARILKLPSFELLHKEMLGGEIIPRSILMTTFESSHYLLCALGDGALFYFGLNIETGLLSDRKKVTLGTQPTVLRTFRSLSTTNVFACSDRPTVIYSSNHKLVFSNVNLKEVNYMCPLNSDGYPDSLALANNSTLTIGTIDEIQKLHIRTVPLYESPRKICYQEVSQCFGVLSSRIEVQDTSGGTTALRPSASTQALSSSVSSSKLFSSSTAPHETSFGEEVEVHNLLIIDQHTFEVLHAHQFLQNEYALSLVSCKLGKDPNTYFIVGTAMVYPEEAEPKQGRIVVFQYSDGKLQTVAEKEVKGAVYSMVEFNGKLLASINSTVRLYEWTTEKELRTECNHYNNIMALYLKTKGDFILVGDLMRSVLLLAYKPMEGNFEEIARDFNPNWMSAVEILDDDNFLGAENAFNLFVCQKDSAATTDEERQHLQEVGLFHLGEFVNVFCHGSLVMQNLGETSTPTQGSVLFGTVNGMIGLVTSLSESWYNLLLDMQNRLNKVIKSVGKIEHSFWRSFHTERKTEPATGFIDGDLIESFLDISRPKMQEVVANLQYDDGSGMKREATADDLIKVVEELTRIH
Description: DCAF15 interactions with test compounds were monitored using HTRF competition assays (Cisbio, Bedford, MA). […] These two solutions were mixed and incubated for 15 min at room temperature. 9.8 ul of the tracer solution and 10 ul of the DCAF15/mAb Anti-6His-Eu cryptate Gold mixture were added sequentially to each well in the assay plate. Reaction mixtures with no DCAF15 added were included as […] controls. […] Binding was estimated based on ratiometric analysis and titration curves were generated in GraphPad Prism (7.00, GraphPad, La Jolla, CA).

[3] = AlphaLISA, His-tagged DCAF15 complex and biotin-carrying RBM39, read-out: Ternary-RBM39 (RRM2) EC50

T1 sequence (Q66K64 whole entry): as the sequence (Q66K64 whole entry) above
T1 sequence (Q14498 250-328 limits assumed): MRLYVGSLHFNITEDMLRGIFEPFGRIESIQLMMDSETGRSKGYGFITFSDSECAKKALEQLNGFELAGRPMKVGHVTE
T1 sequence (Q16531 whole entry partner): as the sequence (Q16531 whole entry partner) above

Row | SMILES | EC50 [1, 3] [nM] | IC50 [2] [nM] | EC50 [1] [nM]
1 | CCS(=O)(=O)CCNS(=O)(=O)c1ccc(S(=O)(=O)Nc2ccc(Cl)c3c(Cl)c[nH]c23)cc1 [Compound 3, N^1-(3,4-dichloro-1H-indol-7-yl)-N^4-(2-(ethylsulfonyl)ethyl) benzene-1,4-disulfonamide] | < 1000 |  | 
2 | O=S1(=O)CCC(OCCNS(=O)(=O)c2ccc(S(=O)(=O)Nc3ccc(Cl)c4c(Cl)c[nH]c34)cc2)CC1 [Compound 4, N^1-(3,4-dichloro-1H-indol-7-yl)-N4_ (2-((1,1-dioxidotetrahydro-2H-thiopyran-4-yl)oxy)ethyl) benzene-1,4-disulfonamide] | < 1000 |  | 
3 | O=S(=O)(NCCCOCc1ccccc1)c1ccc(S(=O)(=O)Nc2ccc(Cl)c3c(Cl)c[nH]c23)cc1 [Compound 5, N^1-(3-(benzyloxy)propyl)-N^4-(3,4-dichloro-1H-indol-7-yl)benzene-1,4-disulfonamide] | < 20000 | < 100000 | 
4 | O=S(=O)(NCCOCC1CC1)c1ccc(S(=O)(=O)Nc2ccc(Cl)c3c(Cl)c[nH]c23)cc1 [Compound 6, N^1-(2-(cyclopropylmethoxy)ethyl)-N^4-(3,4-dichloro-1H-indol-7-yl)benzene-1,4-disulfonamide] | < 5000 |  | 
5 | COCCOCCCNS(=O)(=O)c1ccc(S(=O)(=O)Nc2ccc(Cl)c3c(Cl)c[nH]c23)cc1 [Compound 7, N^1-(3,4-dichloro-1H-indol-7-yl)-N^4-(3-(2-methoxyethoxy)propyl)benzene-1,4-disulfonamide] | < 5000 | < 20000 | 
6 | CC(C)(C)OC(=O)NC1(CNS(=O)(=O)c2ccc(S(=O)(=O)Nc3ccc(Cl)c4c(Cl)c[nH]c34)cc2)CC1 [Compound 9, tert-butyl (1-(((4-(N-(3,4-dichloro-1H-indol-7-yl)sulfamoyl)phenyl)sulfonamido)methyl)cyclopropyl) carbamate] | < 20000 | < 20000 | 
7 | CCN(CC)C(=O)c1ccc(CNS(=O)(=O)c2ccc(S(=O)(=O)Nc3ccc(Cl)c4c(Cl)c[nH]c34)cc2)cc1 [Compound 12, 4-(((4-(N-(3,4-dichloro-1H-indol-7-yl)sulfamoyl)phenyl)sulfonamido)methyl)-N,N-diethylbenzamid] | < 20000 |  | 
8 | O=S(=O)(NCCc1ccccn1)c1ccc(S(=O)(=O)Nc2ccc(Cl)c3c(Cl)c[nH]c23)cc1 [Compound 26, N^1-(3,4-dichloro-1H-indol-7-yl)-N^4-(2-(pyridin-2-yl)ethyl)benzene-1,4-disulfonamide] | < 5000 |  | 
9 | O=S(=O)(Nc1ccc(Cl)c2c(Cl)c[nH]c12)c1ccc(S(=O)(=O)NC2CCNCC2)cc1 [Compound 29, N^1-(3,4-dichloro-1H-indol-7-yl)-N^4-(piperidin-4-yl)benzene-1,4-disulfonamide] | < 1000 |  | 
10 | O=S(=O)(Nc1ccc(Cl)c2c(Cl)c[nH]c12)c1ccc(S(=O)(=O)NC2CCc3ccccc32)cc1 (centres unmarked) [Compound 34, N^1-(3,4-dichloro-1H-indol-7-yl)-N^4-(2,3-dihydro-1H-inden-1-yl)benzene-1,4-disulfonamide] | < 20000 |  | 
11 | O=S(=O)(Nc1ccc(Cl)c2c(Cl)c[nH]c12)c1ccc(S(=O)(=O)N2CCCCC2)cc1 [Compound 37, N-(3,4-dichloro-1H-indol-7-yl)-4-(piperidin-1-ylsulfonyl)benzenesulfonamide] | < 1000 |  | 
12 | O=S(=O)(Nc1ccc(Cl)c2c(Cl)c[nH]c12)c1cccc(S(=O)(=O)N2CCNCC2)c1 [Compound 41, N-(3,4-dichloro-1H-indol-7-yl)-3-(piperazin-1-ylsulfonyl)benzenesulfonamide] | < 1000 |  | 
13 | CC1CNCCN1S(=O)(=O)c1ccc(S(=O)(=O)Nc2ccc(Cl)c3c(Cl)c[nH]c23)cc1 (centres unmarked) [Compound 46, N-(3,4-dichloro-1H-indol-7-yl)-4-((2-methylpiperazin-1-yl)sulfonyl)benzene sulfonamide] | < 1000 |  | 
14 | CN1CCN(S(=O)(=O)c2ccc(S(=O)(=O)Nc3ccc(Cl)c4c(Cl)c[nH]c34)cc2)CC1 [Compound 48, N-(3,4-dichloro-1H-indol-7-yl)-4-((4-methylpiperazin-1-yl)sulfonyl)benzenesulfonamide] | < 1000 |  | 
15 | CCOC(=O)N1CCN(S(=O)(=O)c2ccc(S(=O)(=O)Nc3ccc(Cl)c4c(Cl)c[nH]c34)cc2)CC1 [Compound 49, ethyl 4-((4-(N-(3,4-dichloro-1H-indol-7-yl)sulfamoyl)phenyl)sulfonyl)piperazine-1-carboxylate] | < 5000 |  | 
16 | N#Cc1ccc(CCCN2CCN(S(=O)(=O)c3ccc(S(=O)(=O)Nc4ccc(Cl)c5c(Cl)c[nH]c45)cc3)CC2)cc1 [Compound 50, 4-((4-(3-(4-cyanophenyl)propyl)piperazin-1-yl)sulfonyl)-N-(3,4-dichloro-1H-indol-7-yl)benzenesulfonamide] |  |  | < 1000
17 | CCCN(c1ccc(S(=O)(=O)Nc2ccc(Cl)c3c(Cl)c[nH]c23)cc1)S(=O)(=O)C1CCN(C)CC1 [Compound 62, N-(4-(N-(3,4-dichloro-1H-indol-7-yl)sulfamoyl)phenyl)-1-methyl-N-propylpiperidine-4-sulfonamide] | < 1000 |  | 
18 | O=S(=O)(Nc1ccc(Cl)c2c(Cl)c[nH]c12)c1ccc(NS(=O)(=O)C2CCNCC2)cc1 [Compound 65, N-(4-(N-(3,4-dichloro-1H-indol-7-yl)sulfamoyl)phenyl)piperidine-4-sulfonamide] | < 5000 |  | 

Row | SMILES | EC50 [1, 3] [nM] | IC50 [2] [nM] | EC50 [1] [nM]
19 | O=S(=O)(Nc1ccc(Cl)c2c(Cl)c[nH]c12)c1ccc(Br)cc1 [Compound 75, 4-bromo-N-(3,4-dichloro-1H-indol-7-yl)benzenesulfonamide] | < 5000 |  | 
20 | Cc1ccc(NS(=O)(=O)c2ccc(S(=O)(=O)N(C)C3CNC3)cc2)c2[nH]cc(C#N)c12 [Compound 79, N^1-(azetidin-3-yl)-N^4-(3-cyano-4-methyl-1H-indol-7-yl)-N^1-methylbenzene-1,4-disulfonamide] | < 1000 |  | 
21 | Cc1ccc(NS(=O)(=O)c2ccc(S(=O)(=O)N3CCCC(N)C3)cc2)c2[nH]cc(C#N)c12 (centres unmarked) [Compound 82, 4-((3-aminopiperidin-1-yl)sulfonyl)-N-(3-cyano-4-methyl-1H-indol-7-yl) benzenesulfonamide] | < 1000 |  | 
22 | Cc1ccc(NS(=O)(=O)c2ccc(S(=O)(=O)N3CCNCC3)cc2)c2[nH]cc(C#N)c12 [Compound 83, N-(3-cyano-4-methyl-1H-indol-7-yl)-4-(piperazin-1-ylsulfonyl)benzene sulfonamide] | < 1000 |  | 
23 | CCC1CN(S(=O)(=O)c2ccc(S(=O)(=O)Nc3ccc(C)c4c(C#N)c[nH]c34)cc2)CCN1 (centres unmarked) [Compound 84, N-(3-cyano-4-methyl-1H-indol-7-yl)-4-((3-ethylpiperazin-1-yl)sulfonyl) benzenesulfonamide] | < 1000 |  | 
24 | COCCN1CCN(S(=O)(=O)c2ccc(S(=O)(=O)Nc3ccc(C)c4c(C#N)c[nH]c34)cc2)CC1 [Compound 85, N-(3-cyano-4-methyl-1H-indol-7-yl)-4-((4-(2-methoxyethyl)piperazin-1-yl)sulfonyl)benzenesulfonamide] | < 1000 |  | 
25 | Cc1ccc(NS(=O)(=O)c2ccc(S(=O)(=O)N3CCNC(=O)C3)cc2)c2[nH]cc(C#N)c12 [Compound 89, N-(3-cyano-4-methyl-1H-indol-7-yl)-4-((3-oxopiperazin-1-yl)sulfonyl)benzenesulfonamide] | < 1000 |  | 
26 | Cc1ccc(NS(=O)(=O)c2ccc(S(=O)(=O)N3CCOCC3)cc2)c2[nH]cc(C#N)c12 [Compound 90, N-(3-cyano-4-methyl-1H-indol-7-yl)-4-(morpholinosulfonyl)benzene sulfonamide] | < 1000 |  | 
27 | Cc1ccc(NS(=O)(=O)c2ccc(S(=O)(=O)N3CC4(CNC4)C3)cc2)c2[nH]cc(C#N)c12 [Compound 93, 4-((2,6-diazaspiro[3.3]heptan-2-yl)sulfonyl)-N-(3-cyano-4-methyl-1H-indol-7-yl)benzenesulfonamide] | < 1000 |  | 
28 | COCCc1cn(-c2cccc(S(=O)(=O)Nc3ccc(C)c4c(C#N)c[nH]c34)c2)nn1 [Compound 97, N-(3-cyano-4-methyl-1H-indol-7-yl)-3-(4-(2-methoxyethyl)-1H-1,2,3-triazol-1-yl)benzenesulfonamide] | < 1000 |  | 
29 | Cc1ccc(NS(=O)(=O)c2cc(F)cc(C#N)c2)c2[nH]cc(C#N)c12 [Compound 98, 3-cyano-N-(3-cyano-4-methyl-1H-indol-7-yl)-5-fluorobenzenesulfonamide] | < 1000 |  | 
30 | COc1cc(NS(=O)(=O)c2cccc(C#N)c2)c2[nH]cc(Cl)c2c1 [Compound 103, N-(3-chloro-5-methoxy-1H-indol-7-yl)-3-cyanobenzenesulfonamide] | < 1000 |  | 
31 | O=C(NS(=O)(=O)c1ccc(Br)s1)c1ccc(Cl)cc1Cl [Tasisulam, tasisulam, reference compound] | < 5000 |  | 
32 | CCCC1CN(S(=O)(=O)c2ccc(S(=O)(=O)Nc3ccc(Cl)c4c(Cl)c[nH]c34)cc2)CCN1 (centres unmarked) [compound 110] |  | < 5000 | 
33 | C#CCOCCOCCOCC(=O)N(CCC)c1ccc(S(=O)(=O)Nc2ccc(Cl)c3c(Cl)c[nH]c23)cc1 [compound 132] | < 5000 |  | 
34 | O=S(=O)(Nc1cccc2cc[nH]c12)c1ccc(S(=O)(=O)N2CCNCC2)cc1 [compound 145] | < 5000 |  | 
35 | O=S(=O)(Nc1ccc(C2CC2)c2c(Cl)c[nH]c12)c1ccc(S(=O)(=O)N2CCNCC2)cc1 [compound 147] |  | < 100000 | 
